Activity calls are given as the source filed them.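 How the source made its calls: active means more than half of replicate measurements showing over 20% loss of kinase signal relative to plate controls; inconclusive means some but at most half of replicates over 20% loss; inactive means no replicate over 20% signal loss.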
Target: Glycogen synthase kinase-3 alpha (Homo sapiens) (UniProt P49840)
Assay: concentration-response blocking of human GSK3A – biochemical, luminescence, cell-free homogeneous, retest, dose response (AID 463203)
Settings: GSK-3 alpha enzyme, ADP-Glo luminescence, 60 min

Sequence of Glycogen synthase kinase-3 alpha (Homo sapiens) (P49840 whole entry, looked up): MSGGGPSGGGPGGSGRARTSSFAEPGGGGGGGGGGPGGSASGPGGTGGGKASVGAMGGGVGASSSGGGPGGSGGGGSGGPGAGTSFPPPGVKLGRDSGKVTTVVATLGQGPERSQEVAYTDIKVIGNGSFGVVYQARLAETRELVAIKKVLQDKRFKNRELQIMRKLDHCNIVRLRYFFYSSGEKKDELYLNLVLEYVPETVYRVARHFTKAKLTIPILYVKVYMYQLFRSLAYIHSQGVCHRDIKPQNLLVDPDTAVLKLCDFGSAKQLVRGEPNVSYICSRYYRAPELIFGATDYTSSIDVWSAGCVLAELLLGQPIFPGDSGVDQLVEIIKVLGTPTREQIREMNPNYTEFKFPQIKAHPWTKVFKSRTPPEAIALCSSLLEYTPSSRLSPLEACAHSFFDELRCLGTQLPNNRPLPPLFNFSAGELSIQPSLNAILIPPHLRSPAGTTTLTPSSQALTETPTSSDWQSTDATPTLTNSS

Structure (SMILES)	AC50
Cc1ccc(NC(=O)c2cc(-n3cnnc3)ccc2Cl)cc1	> 30 µM (inactive)
COc1ccc(Cl)cc1Nc1nc(N)c2ccccc2n1	> 30 µM (inactive)
Cc1ccc(S(=O)(=O)Nc2cccc3cccnc23)cc1	> 30 µM (inactive)
CC1CCCC(C)N1C(=O)COC(=O)Cc1c[nH]c2ccccc12 (centres undefined)	> 30 µM (inactive)
Cc1sc2nc(SCC(=O)Nc3ccc(S(=O)(=O)NCCCC(=O)O)cc3)[nH]c(=O)c2c1C	7.13 µM
Cc1nc(Nc2ccc(S(N)(=O)=O)cc2)oc1C	> 30 µM (inactive)
CCOC(=O)C1CCN(c2c(C(=O)c3ccccc3)cnc3ccc(CC)cc23)CC1	> 30 µM (inactive)
Cc1csc(NC(=O)C2CCCN(S(=O)(=O)c3cnc[nH]3)C2)n1 (centres undefined)	> 30 µM (inactive)
CC(=O)Nc1ccc(NS(=O)(=O)c2cccc3nonc23)cc1	> 30 µM (inactive)
CC(C)N=C(NC#N)SCc1ccccc1F	> 30 µM (inactive)
O=C(O)CCSc1nnc(-c2ccncc2)n1-c1ccccc1	> 30 µM (inactive)
CC1CCN(Cc2c(C(=O)N/N=C/c3cccc(Cl)c3)nnn2-c2nonc2N)CC1	2.73 µM
N/C(=N\OC(=O)c1ccc(Br)cc1)c1cccc([N+](=O)[O-])c1	> 30 µM (inactive)
COc1ccc(C2NC(=O)NC(C)=C2C(=O)OCc2ccc3c(c2)OCO3)cc1OC (centres undefined)	10.2 µM
O=C(NCCCN1CCOCC1)c1ccc(Cl)c([N+](=O)[O-])c1	> 30 µM (inactive)
COc1cccc(NC(=O)Nc2cc(Cl)ccc2C)c1	> 30 µM (inactive)
Cc1ccc(/C=N/NC(=O)c2nnn(-c3nonc3N)c2-c2cccs2)cc1	1.04 µM
Fc1cccc(/C=N/Nc2ccccn2)c1	> 30 µM (inactive)
O=c1[nH]ncn1-c1ccccc1	> 30 µM (inactive)
CCOC(=O)/C(C#N)=C1/SC(CCO)C(=O)N1c1ccccc1 (centres undefined)	13.1 µM
CCOc1cccc(-c2c(C(=O)N/N=C(\C)c3cccnc3)nnn2-c2nonc2N)c1	5.21 µM
COC(=O)CNc1nc(Cl)nc(NC2CCCCC2)n1	> 30 µM (inactive)
COCC(O)CSc1nc(C)[nH]c1[N+](=O)[O-] (centres undefined)	> 30 µM (inactive)
COC(=O)[C@@H](NC(=O)NCc1ccccc1F)C(C)C	> 30 µM (inactive)
Cc1ccccc1N=Nc1c(O)[nH]c2ccccc12	> 30 µM (inactive)
Cc1oc2ccc(O)c(CN(C)C)c2c1C(=O)c1ccccc1	> 30 µM (inactive)
CCC(Oc1ccccc1)C(=O)Nc1ncc([N+](=O)[O-])s1 (centres undefined)	> 30 µM (inactive)

Structure (SMILES)	AC50
NNc1nc2sc3c(c2c(=O)[nH]1)CCc1ccccc1-3	> 30 µM (inactive)
O=[N+]([O-])c1cccnc1N1CCCNCC1	> 30 µM (inactive)
N#Cc1c(Nc2ccccc2)c(C=NCCN2CCOCC2)c[nH]c1=O	> 30 µM (inactive)
COc1ccc(OC)c(C2=Nn3c(nnc3-c3ccncc3)SC2)c1	1.5 µM
COc1cccc(OCc2cc(C(=O)NCc3ccc4c(c3)OCO4)no2)c1	> 30 µM (inactive)
CCOC(=O)c1nnn(-c2nonc2OC)c1-c1ccccc1	> 30 µM (inactive)
C[C@H](CO)N1C[C@H](C)[C@@H](CN(C)S(=O)(=O)c2ccc(F)cc2)Oc2c(NC(=O)Cc3ccccc3)cccc2C1=O	> 30 µM (inactive)
COc1ccc(-c2cc(=O)c3ccccc3o2)cc1	> 30 µM (inactive)
CCOC(=O)c1cc(CC)sc1NC(=O)C1CC1	> 30 µM (inactive)
CCN1/C(=C\C(C)=O)Sc2ccc(OC)cc21	17.4 µM
COc1ccc2cc(C(N)=O)c(=Nc3ccc(C)cc3)oc2c1	> 30 µM (inactive)
c1cncc(CSc2nnc3ccc(-c4cccs4)nn23)c1	14.4 µM
NC(=O)c1cn(-c2ccccc2)nc1-c1cccnc1	> 30 µM (inactive)
Oc1ccc(-c2nc3ncccn3c2Nc2ccc3c(c2)OCO3)cc1	6.33 µM
c1ccc(N2CCN(c3nc4ccccc4n4cnnc34)CC2)cc1	> 30 µM (inactive)
COc1ccc(OC)c(S(=O)(=O)N2CCN(C(=O)c3cc(C4CC4)nn3-c3ccccc3)CC2)c1	> 30 µM (inactive)
Brc1ccc(C2=Nn3c(nnc3-c3cccnc3)SC2)s1	> 30 µM (inactive)
COC(=O)c1oc2ccc(Br)cc2c1NC(=O)c1ccccc1	> 30 µM (inactive)
COc1cccc(-c2c(C(=O)N/N=C/c3ccoc3)nnn2-c2nonc2N)c1	7.92 µM
NNC(=O)/C(=N/Nc1ccccc1)S(=O)(=O)c1ccc(Cl)cc1	> 30 µM (inactive)
Cc1ccc(-n2cnc(N)c2C(=O)c2cccc([N+](=O)[O-])c2)cc1	10.8 µM
O=C(Nc1ccccc1)c1ccc(CSc2ncccn2)cc1	> 30 µM (inactive)
CSc1ccc(/C=C2\NC(=O)NC2=O)cc1	27.9 µM
COC(=O)C1=C(C)N(C)C(=O)/C1=C\c1ccco1	> 30 µM (inactive)
CC(C)NC(=O)/C(=C\c1cccc([N+](=O)[O-])c1)NC(=O)c1ccccc1	> 30 µM (inactive)
COc1cccc(-c2[nH]nc3c2C(c2ccc(C)o2)C(C#N)=C(N)O3)c1 (centres undefined)	> 30 µM (inactive)
CN(C)c1ccc(Nc2nc(N)c3ccccc3n2)cc1	18.2 µM

Structure (SMILES)	AC50
CCCCc1ccc(NC(=O)N[C@@H](C)C(=O)O)cc1	> 30 µM (inactive)
CCCNC(=O)NC(C)C12CC3CC(CC(C3)C1)C2 (centres undefined)	> 30 µM (inactive)
CC1(C)CC(=O)C2=C(C1)Nc1ccccc1[S@]2=O	> 30 µM (inactive)
Cc1nc2sc(C(N)=O)c(N)c2c2c1CCCC2	28 µM
Cc1cc(NC(=O)COC(=O)c2cc(S(=O)(=O)N3CCOCC3)ccc2N2CCCCC2)no1	10.1 µM
COc1ccc(-n2c(SCC(N)=O)nnc2-c2ccco2)cc1	> 30 µM (inactive)
CC1CC(=O)c2cnc(NCC3CCCO3)nc2C1 (centres undefined)	> 30 µM (inactive)
O=C(c1ccc2c3n(nc2c1)-c1ccc(Cl)cc1CO3)N1CCOCC1	> 30 µM (inactive)
COc1ccc(-c2cn3cccnc3n2)cc1NC(=O)C(C)C	> 30 µM (inactive)
O=C(CSc1nc2[nH]ncc2c(=O)n1-c1ccccc1)NCCc1ccccc1	8.62 µM
NC(=O)c1ccsc1NC(=O)COC(=O)Cc1ccsc1	28.6 µM
COC(=O)c1cc2cc(Cl)ccc2nc1SC	> 30 µM (inactive)
COc1ccccc1N=c1oc2c(OC)cccc2cc1C(=O)NCc1ccco1	> 30 µM (inactive)
O=C(NCCN1CCN(Cc2ccccc2)CC1)Nc1cc(Cl)cc(Cl)c1	> 30 µM (inactive)
O=C(COc1ccccc1Br)NC1CC1	> 30 µM (inactive)
Cn1ccnc1SCC(=O)Nc1ccc(Cl)cn1	23.1 µM
O=c1[nH]ncc(N/N=C\c2cccs2)c1Cl	6.07 µM
CCOC(=O)c1c(Cc2ccccc2)c[nH]c1C	> 30 µM (inactive)
O=C(CN(Cc1ccco1)C(=O)CCC(=O)Nc1ccccn1)NCc1ccccc1	> 30 µM (inactive)
COc1ccc(CC(=S)N2CCOCC2)cc1	> 30 µM (inactive)
Oc1[nH]c2ccccc2c1N=Nc1ccccc1	13.9 µM
COc1cccc(-c2nc(-c3ccccc3)[nH]c(=O)c2C#N)c1	> 30 µM (inactive)
COc1ccccc1C(=O)NC(C)c1ccccc1 (centres undefined)	> 30 µM (inactive)
O=C(CSc1nnc(SCc2ccccc2)s1)N/N=C/c1ccc(C(=O)O)cc1	2.55 µM
CCN1/C(=C/C=C/c2sc3ccccc3[n+]2CC)Sc2ccccc21	24.6 µM

From PubChem BioAssay AID463203 (Broad Institute, 2010)
